In patent publication US20050208463A1, “Method of screening drug” (priority 2001, published 2005):

What was measured:
Lrp-like protein [1] = assay: Gel filtration analysis of changes in assemblies of the Lrp-like protein on mixing with potential ligands; format: biochemical, Pyrococcus sp. OT3; conditions: for change in gel filtration profile of the Lrp-like protein (peak increased): protein monomer approximately 100 μM, at least 30 minutes at room temperature, UV 220 nm
Experimental: Possible changes in assemblies of the Lrp-like protein induced by interaction with amino acids and metabolic intermediates were analyzed in solution using gel filtration.
Gel filtration was carried out with the flow rate […], using a matrix (Protein Pak 125, 7.8×300 mm, Waters) and 50 mM Tris-HCl buffer (pH 7.0) containing 300 mM sodium chloride. Flow of the proteins was monitored by measuring the UV absorbance at 220 nm (LC Module I plus system, Waters). The Lrp-like protein purified by method 2, i.e., the rigorous method, were dissolved in 50 mM Tris-HCl buffer (pH 7.0) containing 200 mM sodium chloride, and kept at −80° C. until it was diluted by 10-fold with 50 mM Tris-HCl buffer (pH 7.0) containing 300 mM sodium chloride, and mixed with each potential ligand for at least 30 minutes at room temperature (about 25° C.). In the mixture, the monomer concentration of the Lrp-like protein was approximately 100 μM.

Lrp-like protein [2] = assay: Depolarization of crystals of the Lrp-like protein soaked in amino acid solutions; format: binding, Pyrococcus sp. OT3; conditions: crystals soaked in 10 mM amino acid; several hours
Experimental: It has been known that the regularity inside a crystal might be affected, if the structure of the protein changes upon interaction with a ligand which is incorporated from outside the crystal, thereby depolarizing the crystal. Thus, crystals of the Lrp-like protein were soaked into solutions, each containing one of twenty amino acids at the same concentration 10 mM.

Compound	effect on assembling of the Lrp-like protein concluded from gel filtration (Lrp-like protein [1]; metabolic intermediate 10 mM)	change in gel filtration profile of the Lrp-like protein (peak increased) (Lrp-like protein [1]; metabolic intermediate 10 mM)	effect on assembling of the Lrp-like protein concluded from gel filtration (Lrp-like protein [1]; amino acid 1 mM)	change in gel filtration profile of the Lrp-like protein (peak increased) (Lrp-like protein [1]; amino acid 1 mM)	depolarization of crystals of the Lrp-like protein (Lrp-like protein [2])
O=C(O)CC(=O)C(=O)O [oxaloacetic acid]	intermediate effects	the third peak increased	–	–	–
C[C@H](N)C(=O)O [alanine]	–	–	accelerate disassembling of the protein	increasing the fourth peak	–
CC[C@H](C)[C@H](N)C(=O)O [isoleucine]	–	–	accelerates assembling of the protein	increasing the second peak	depolarized
CC(=O)C(=O)O [pyruvic acid]	–	no significant effect was observed	–	–	–
N=C(N)NCCC[C@H](N)C(=O)O [arginine]	–	–	accelerate disassembling of the protein	increasing the fourth peak	–
N[C@@H](Cc1ccccc1)C(=O)O [phenylalanine]	–	–	accelerate disassembling of the protein	increasing the fourth peak	–
CSCC[C@H](N)C(=O)O [methionine]	–	–	accelerate disassembling of the protein	increasing the fourth peak	depolarized
O=C(O)CC(O)C(=O)O (centres unmarked) [malic acid]	intermediate effects	the third peak increased	–	–	–
CC(C)C[C@H](N)C(=O)O [leucine]	–	–	accelerate disassembling of the protein	increasing the fourth peak	depolarized
CC(C)[C@H](N)C(=O)O [valine]	–	–	intermediate effects	the third peak increased	depolarized
O=C(O)C(O)COP(=O)(O)O (centres unmarked) [3-phosphoglyceric acid]	–	no significant effect was observed	–	–	–
C[C@@H](O)[C@H](N)C(=O)O [threonine]	–	–	accelerate disassembling of the protein	increasing the fourth peak	–
